As a reminder, the refractive index is the speed of light in vacuum divided by its phase velocity in the sample. Broadly, the mass density is mass per unit of volume. The vapor or sublimation pressure is the equilibrium pressure above the liquid or solid.

± gives the expanded uncertainty stated by the source.

Data set [1] can be described thus: refractive index (Na D-line) (dimensionless). Conditions: 298.15 K; 101.33 kPa; Liquid; Standard Abbe refractometry.
For data set [2] the following is noted: Liquid; for mass density: 303.15 K, 101.33 kPa, Pycnometric method; for vapor or sublimation pressure: Ebulliometric method (Recirculating still).

Turning to `CC(C)CO` [2-methyl-1-propanol], the refractive index in data set [1] was found to be 1.3939 ± 0.0013. Moreover, the mass density in data set [2] was 794.34 ± 4.6 kg/m3. Moreover, the “vapor or sublimation pressure” value in data set [2] (379.35 K) turned out to be 95.3 ± 2 kPa.

As to `CC(C)(C)O` [2-methylpropan-2-ol], the refractive index in data set [1] is 1.3851 ± 0.0013. Besides, the mass density in data set [2] was found to be 776.16 ± 4.4 kg/m3. For the same compound, the “vapor or sublimation pressure” value in data set [2] (353.95 K) is 95.3 ± 2 kPa.

On to `CC(C)CCO` [3-methylbutan-1-ol], for which the refractive index in data set [1] was 1.4053 ± 0.0013. In addition, in data set [2], the mass density worked out at 801.76 ± 4.7 kg/m3. In addition, the “vapor or sublimation pressure” value in data set [2] (401.85 K) worked out at 95.3 ± 2 kPa.

Turning to `CN1CCCC1=O` [N-methylpyrrolidone], the refractive index in data set [1] is on record as 1.4674 ± 0.0008. Also, the mass density in data set [2] is given as 1023.4 ± 0.61 kg/m3. In data set [2] (473.25 K), the “vapor or sublimation pressure” value was 95.3 ± 1.9 kPa.

On to `CCC(C)O` (stereo not drawn) [butan-2-ol], for which, in data set [1], the refractive index worked out at 1.3954 ± 0.0013. Also, the mass density in data set [2] stood at 798.92 ± 4.7 kg/m3. For the same compound, the “vapor or sublimation pressure” value in data set [2] (371.05 K) was determined as 95.3 ± 2 kPa.

For `CC(C)O` [propan-2-ol], the refractive index in data set [1] is listed as 1.375 ± 0.0013. Besides, the mass density in data set [2] was found to be 776.88 ± 4.4 kg/m3. Also, the “vapor or sublimation pressure” value in data set [2] (353.85 K) worked out at 95.3 ± 2 kPa.

Values taken from the NIST ThermoML archive (doi:10.1016/j.jct.2008.09.021).
